Test results taken from US8183251B2, “Hydantoin compounds and pharmaceutical compositions thereof” (AstraZeneca AB, priority 2006, dated 2012).
Where a name gives a salt, the structure may show the parent alone.

Experiments:
Assay type in all cases: biochemical
[1] = target: T1, human MMP19 catalytic domain (Homo sapiens, UniProt Q99542); experiment: Isolated enzyme assay MMP19 (fluorogenic substrate); conditions: IC50 (MMP19) divided by IC50 (MMP12)
T1 construct: Recombinant human MMP19 catalytic domain; made in house
Experimental: Recombinant human MMP19 catalytic domain may be expressed and purified as described by Parkar A. A. et al, (2000), Protein Expression and Purification, 20:152. The purified enzyme can be used to monitor inhibitors of activity as follows: MMP19 (40 ng/ml final concentration) is incubated for 120 minutes at 35° C. with the synthetic substrate Mca-Pro-Leu-Ala-Nva-Dpa-Ala-Arg-NH2 (5 μM) in assay buffer (0.1M “Tris-HCl” (trade mark) buffer, pH 7.3 containing 0.1M NaCl, 20 mM CaCl2, 0.020 mM ZnCl and 0.05% (w/v) “Brij 35” (trade mark) detergent) in the presence (5 concentrations) or absence of inhibitors. Activity is determined by measuring the fluorescence at λex 320 nm and λem 405 nm. Percent inhibition is calculated as follows: % Inhibition is equal to the [Fluorescenceplus inhibitor−Fluorescencebackground] divided by the [Fluorescenceminus inhibitor−Fluorescencebackground].

[2] = target: T2, human MMP14 catalytic domain (Homo sapiens, UniProt P50281); experiment: Isolated enzyme assay MMP14 (fluorogenic substrate); conditions: IC50 (MMP14) divided by IC50 (MMP12)
T2 construct: Recombinant human MMP14 catalytic domain; made in house
Experimental: Recombinant human MMP14 catalytic domain may be expressed and purified as described by Parkar A. A. et al, (2000), Protein Expression and Purification, 20, 152. The purified enzyme can be used to monitor inhibitors of activity as follows: MMP14 (10 ng/ml final concentration) is incubated for 60 minutes at room temperature with the synthetic substrate Mca-Pro-Cha-Gly-Nva-His-Ala-Dpa-NH2 (10 μM) in assay buffer (0.1M “Tris-HCl” (trade mark) buffer, pH 7.5 containing 0.1M NaCl, 20 mM CaCl2, 0.020 mM ZnCl and 0.05% (w/v) “Brij 35” (trade mark) detergent) in the presence (5 concentrations) or absence of inhibitors. Activity is determined by measuring the fluorescence at λex 320 nm and λem 405 nm. Percent inhibition is calculated as follows: % Inhibition is equal to the [Fluorescenceplus inhibitor−Fluorescencebackground] divided by the [Fluorescenceminus inhibitor−Fluorescencebackground].

hMMP8 = target: T3, hMMP8 (Homo sapiens, UniProt P22894); experiment: Isolated enzyme assay MMP8 (fluorogenic substrate); conditions: IC50 (MMP8) divided by IC50 (MMP12)
T3 construct: purchased Calbiochem
Experimental: Purified pro-MMP8 is purchased from Calbiochem. The enzyme (at 10 μg/ml) is activated by p-amino-phenyl-mercuric acetate (APMA) at 1 mM for 2.5 h, 35° C. The activated enzyme can be used to monitor inhibitors of activity as follows: MMP8 (200 ng/ml final concentration) is incubated for 90 minutes at 35° C. (80% H2O) with the synthetic substrate Mca-Pro-Cha-Gly-Nva-His-Ala-Dpa-NH2 (12.5 μM) in assay buffer (0.1M “Tris-HCl” (trade mark) buffer, pH 7.5 containing 0.1M NaCl, 30 mM CaCl2, 0.040 mM ZnCl and 0.05% (w/v) “Brij 35” (trade mark) detergent) in the presence (10 concentrations) or absence of inhibitors. Activity is determined by measuring the fluorescence at λex 320 nm and λem 405 nm. Percent inhibition is calculated as follows: % Inhibition is equal to the [Fluorescenceplus inhibitor−Fluorescencebackground] divided by the [Fluorescenceminus inhibitor−Fluorescencebackground].

[3] = tested on: human MMP9 catalytic domain; experiment: Isolated enzyme assay MMP9 (fluorogenic substrate); conditions: IC50 (MMP9) divided by IC50 (MMP12)
Experimental: Recombinant human MMP9 catalytic domain was expressed and then purified by Zn chelate column chromatography followed by hydroxamate affinity column chromatography. The enzyme can be used to monitor inhibitors of activity as follows: MMP9 (5 ng/ml final concentration) is incubated for 30 minutes at RT with the synthetic substrate Mca-Pro-Cha-Gly-Nva-His-Ala-Dpa-NH2 (5 μM) in assay buffer (0.1M “Tris-HCl” (trade mark) buffer, pH 7.3 containing 0.1M NaCl, 20 mM CaCl2, 0.020 mM ZnCl and 0.05% (w/v) “Brij 35” (trade mark) detergent) in the presence (10 concentrations) or absence of inhibitors. Activity is determined by measuring the fluorescence at λex 320 nm and λem 405 nm. Percent inhibition is calculated as follows: […]
% Inhibition is equal to the [Fluorescenceplus inhibitor−Fluorescencebackground] divided by the [Fluorescenceminus inhibitor−Fluorescencebackground].
A protocol for testing against other matrix metalloproteinases, including MMP9, using expressed and purified pro MMP is described, for instance, by C. Graham Knight et al., (1992) FEBS Lett., 296 (3), 263-266.

[4] = target: T4, human MMP12 catalytic domain (Homo sapiens, UniProt P39900); experiment: Isolated enzyme assay MMP12 (fluorogenic substrate); conditions: recombinant human MMP12 catalytic domain, 60 minutes at room temperature; read-out: hMMP12 IC50
T4 construct: Recombinant human MMP12 catalytic domain; made in house
Experimental: Recombinant human MMP12 catalytic domain may be expressed and purified as described by Parkar A. A. et al, (2000), Protein Expression and Purification, 20, 152. The purified enzyme can be used to monitor inhibitors of activity as follows: MMP12 (50 ng/ml final concentration) is incubated for 60 minutes at room temperature with the synthetic substrate Mca-Pro-Cha-Gly-Nva-His-Ala-Dpa-NH2 (10 μM) in assay buffer (0.1M “Tris-HCl” (trade mark) buffer, pH 7.3 containing 0.1M NaCl, 20 mM CaCl2, 0.020 mM ZnCl and 0.05% (w/v) “Brij 35” (trade mark) detergent) in the presence (10 concentrations) or absence of inhibitors. Activity is determined by measuring the fluorescence at λex 320 nm and λem 405 nm. Percent inhibition is calculated as follows: % Inhibition is equal to the [Fluorescenceplus inhibitor−Fluorescencebackground] divided by the [Fluorescenceminus inhibitor−Fluorescencebackground].

T1 sequence (Q99542 98-256 limits assumed): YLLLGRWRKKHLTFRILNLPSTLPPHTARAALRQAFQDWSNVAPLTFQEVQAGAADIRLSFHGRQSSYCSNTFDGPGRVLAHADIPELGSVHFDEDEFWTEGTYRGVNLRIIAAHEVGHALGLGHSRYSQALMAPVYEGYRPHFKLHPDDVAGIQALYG
T3 sequence (P22894 101-467): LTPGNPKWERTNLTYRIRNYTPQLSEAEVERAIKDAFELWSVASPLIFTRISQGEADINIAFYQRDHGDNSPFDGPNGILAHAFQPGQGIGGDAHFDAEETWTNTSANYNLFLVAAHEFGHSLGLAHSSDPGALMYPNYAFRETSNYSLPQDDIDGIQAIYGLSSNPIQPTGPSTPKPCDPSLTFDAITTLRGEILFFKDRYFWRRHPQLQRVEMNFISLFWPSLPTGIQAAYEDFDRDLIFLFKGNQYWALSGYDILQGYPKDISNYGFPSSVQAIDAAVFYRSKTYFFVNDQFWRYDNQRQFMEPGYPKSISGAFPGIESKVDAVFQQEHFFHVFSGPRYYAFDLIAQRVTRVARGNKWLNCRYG
T4 sequence (P39900 106-263 limits assumed): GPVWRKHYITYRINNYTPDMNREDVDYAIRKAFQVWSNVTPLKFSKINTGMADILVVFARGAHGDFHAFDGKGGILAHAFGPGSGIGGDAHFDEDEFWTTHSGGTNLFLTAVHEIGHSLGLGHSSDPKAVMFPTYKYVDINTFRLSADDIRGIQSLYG

Compound | Selectivity for inhibition of hMMP12 over: hMMP19 [1] | Selectivity for inhibition of hMMP12 over: hMMP14 [2] | Selectivity for inhibition of hMMP12 over: hMMP8 (hMMP8) | Selectivity for inhibition of hMMP12 over: hMMP9 [3] | IC50 [4] [nM]
CN(Cc1ccc(Oc2cncnc2)cc1)S(=O)(=O)C[C@@]1(C2CC2)NC(=O)NC1=O [Example 1, 1-[(4S)-4-Cyclopropyl-2,5-dioxoimidazolidin-4-yl]-N-methyl-N-{[4-(pyrimidin-5-yloxy)phenyl]methyl}methanesulfonamide trifluoroacetic acid salt] | >525 | >525 | 320 | >525 | 19
CN(Cc1ccc(Oc2cnc(C3CC3)nc2)cc1)S(=O)(=O)C[C@@]1(C2CC2)NC(=O)NC1=O [Example 2, 1-[(4S)-4-Cyclopropyl-2,5-dioxoimidazolidin-4-yl]-N-({4-[(2-cyclopropylpyrimidin-5-yl)oxy]phenyl}methyl)-N-methylmethanesulfonamide] | >2320 | >2320 | 2120 | 1440 | 4.3
Cc1ncc(Oc2ccc(CN(C)S(=O)(=O)C[C@@]3(C4CC4)NC(=O)NC3=O)cc2)cn1 [Example 3, 1-[(4S)-4-Cyclopropyl-2,5-dioxoimidazolidin-4-yl]-N-methyl-N-({4-[(2-methylpyrimidin-5-yl)oxy]phenyl}methyl)methanesulfonamide] | >2800 | >7142 | >628 | 857 | 14
CN(Cc1ccc(Oc2cnc(C(F)(F)F)nc2)cc1)S(=O)(=O)C[C@@]1(C2CC2)NC(=O)NC1=O [Example 4, 1-[(4S)-4-Cyclopropyl-2,5-dioxoimidazolidin-4-yl]-N-methyl-N-[(4-{[2-(trifluoromethyl)pyrimidin-5-yl]oxy}phenyl)methyl]methanesulfonamide] | >2882 | >3560 | >1168 | >795 | 8.3
CCc1ncc(Oc2ccc(CN(C)S(=O)(=O)C[C@@]3(C4CC4)NC(=O)NC3=O)cc2)cn1 [Example 5, 1-[(4S)-4-Cyclopropyl-2,5-dioxoimidazolidin-4-yl]-N-({4-[(2-ethylpyrimidin-5-yl)oxy]phenyl}methyl)-N-methylmethanesulfonamide] | >588 | >588 | 417 | 523 | 17
O=C1NC(=O)[C@](CS(=O)(=O)NCc2ccc(Oc3cnc(C(F)(F)F)nc3)cc2)(C2CC2)N1 [Example 6, 1-[(4S)-4-Cyclopropyl-2,5-dioxoimidazolidin-4-yl]-N-[(4-{[2-(trifluoromethyl)pyrimidin-5-yl]oxy}benzyl)]methane sulfonamide] |  |  | 657 | 1530 | 63.7
C[C@]1(CS(=O)(=O)NCc2ccc(Oc3ccccc3)cc2)NC(=O)NC1=O [reference compound] | >330 | >330 | 202 | 261 | 151
